Reference: patent US7576094B2, “Spiro derivatives as lipoxygenase inhibitors” (Eli Lilly and Company, priority 2004, dated 2009)

Assays:
[1] = test system: release of the leukotriene LTB4 from a neutrophil cell line (MPRO cell line); test: LTB4-Cell Assay; format: cell-based; settings: Mus musculus, 1 h, read-out: inhibition of LTB4 with an EC50
Procedure, shortened: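 Mouse promyelocytic cells differentiated to neutrophils with 10 μM all-trans retinoic acid for 72 h, then stimulated with 1 μM A23187 plus compound for 1 h at 37° C. Supernatant LTB4 quantified by competitive EIA; 5 concentrations in quadruplicate from 10 μM top.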

[2] = target: T1, human recombinant 5-Lipoxygenase (Homo sapiens, UniProt P09917); test: 5-Lipoxygenase Enzyme Assay; format: biochemical; settings: 70 μM arachidonic acid, 10 minute incubation at room temperature, FOX reagent, absorbance at 620 nm; read-out: inhibition of 5-Lipoxygenase with an IC50
T1 sequence (P09917 1-674): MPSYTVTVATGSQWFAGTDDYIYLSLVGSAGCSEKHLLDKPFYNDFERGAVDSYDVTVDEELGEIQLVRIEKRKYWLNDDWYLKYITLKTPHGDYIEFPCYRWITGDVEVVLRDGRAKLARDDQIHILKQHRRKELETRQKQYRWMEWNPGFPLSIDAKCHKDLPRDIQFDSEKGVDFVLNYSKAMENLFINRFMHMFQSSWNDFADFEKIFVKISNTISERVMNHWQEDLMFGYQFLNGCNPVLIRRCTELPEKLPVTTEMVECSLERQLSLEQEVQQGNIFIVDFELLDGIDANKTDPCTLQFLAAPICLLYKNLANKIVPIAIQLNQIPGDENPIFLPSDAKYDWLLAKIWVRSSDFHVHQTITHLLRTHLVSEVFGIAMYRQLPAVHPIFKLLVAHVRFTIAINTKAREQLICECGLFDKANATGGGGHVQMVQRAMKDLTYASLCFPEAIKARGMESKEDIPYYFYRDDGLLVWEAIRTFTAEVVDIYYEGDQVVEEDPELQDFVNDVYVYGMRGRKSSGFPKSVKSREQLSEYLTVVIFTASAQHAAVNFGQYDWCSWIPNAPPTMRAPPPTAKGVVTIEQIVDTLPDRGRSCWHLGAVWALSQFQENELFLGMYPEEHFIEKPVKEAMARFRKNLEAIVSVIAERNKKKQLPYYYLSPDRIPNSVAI
Procedure, shortened: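 Recombinant human 5-LOX in 50 mM Tris-HCl pH 7.4 was preincubated with compound, then 70 μM arachidonic acid was added for 10 min at room temperature. Hydroperoxide was read by FOX reagent (ferric xylenol orange, 1 h complex formation) as absorbance at 620 nm. Five concentrations in triplicate were tested, starting at 10 μM.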

SMILES	EC50 [1]	IC50 [2]
Cc1c(C)c2c(c(C)c1O)C1(CCC1)CC(C)(C)S2 [2′,2′,5′,7′,8′-pentamethyl-2′,3′-dihydrospiro[cyclobutane-1,4′-thiochromen]-6′-ol]	< 5000 nM	< 300 nM
COC(C)C1=Cc2c(C)c(O)c(C)c(C)c2OC12CCC2 (centres unmarked) [3-(1-methoxyethyl)-5,7,8-trimethylspiro[chromene-2,1′-cyclobutan]-6-ol]	< 5000 nM	< 300 nM
CCONCC1=Cc2c(cc(C)c(O)c2C)OC12CCC2 [3-[(ethoxyamino)methyl]-5,7-dimethylspiro[chromene-2,1′-cyclobutan]-6-ol]	< 5000 nM	< 300 nM
CCONC1CC2(CCC2)Sc2c(C)c(C)c(O)c(C)c21 (centres unmarked) [4′-(ethoxyamino)-5′,7′,8′-trimethyl-3′,4′-dihydrospiro[cyclobutane-1,2′-thiochromen]-6′-ol]	< 5000 nM	< 300 nM
CCONC1CC2(CCC2)Sc2cc(C)c(O)c(C)c21 (centres unmarked) [4′-(ethoxyamino)-5′,7′-dimethyl-3′,4′-dihydrospiro[cyclobutane-1,2′-thiochromen]-6′-ol]	< 5000 nM	< 300 nM
CONC1CC2(CCC2)Sc2c(C)c(C)c(O)c(C)c21 (centres unmarked) [4′-(methoxyamino)-5′,7′,8′-trimethyl-3′,4′-dihydrospiro[cyclobutane-1,2′-thiochromen]-6′-ol]	< 5000 nM	< 300 nM
CONC1CC2(CCC2)Sc2cc(C)c(O)c(C)c21 (centres unmarked) [4′-(methoxyamino)-5′,7′-dimethyl-3′,4′-dihydrospiro[cyclobutane-1,2′-thiochromen]-6′-ol]	< 5000 nM	< 300 nM
Cc1c(C)c2c(c(C)c1O)CCC1(CC1)O2 [5,7,8-trimethyl-3,4-dihydrospiro[chromene-2,1′-cyclopropan]-6-ol]	< 5000 nM	< 300 nM
Cc1cc2c(c(C)c1O)CCC1(CCC1)O2 [5,7-dimethyl-3,4-dihydrospiro[chromene-2,1′-cyclobutan]-6-ol]	< 5000 nM	< 300 nM
Cc1cc2c(c(C)c1O)CC1(CCC1)CO2 [5,7-dimethylspiro[chroman-3,1′-cyclobutan]-6-ol]	< 5000 nM	< 300 nM
Cc1cc2c(c(C)c1O)C=CC1(CCC1)O2 [5,7-dimethylspiro[chromene-2,1′-cyclobutan]-6-ol]	< 5000 nM	< 300 nM
Cc1c(C)c2c(c(Cl)c1O)CCC1(CCC1)O2 [5-chloro-7,8-dimethyl-3,4-dihydrospiro[chromene-2,1′-cyclobutan]-6-ol]	< 5000 nM	< 300 nM
Cc1c(C)c2c(c(C)c1O)C1(CCC1)CCS2 [5′,7′,8′-trimethyl-2′,3′-dihydrospiro[cyclobutane, 1,4′-thiochromen]-6′-ol]	< 5000 nM	< 300 nM
CCO/N=C/C1=Cc2c(cc(C)c(O)c2C)OC12CCC2 [6-hydroxy-5,7-dimethylspiro[chromene-2,1′-cyclobutane]-3-carbaldehyde O-ethyloxime]	< 5000 nM	< 300 nM
CO/N=C1\CC2(CCC2)Sc2c(C)c(C)c(O)c(C)c21 [6′-hydroxy-5′,7′,8′-trimethylspiro[cyclobutane-1,2′-thiochroman]-4′(3′H)-one O-methyloxime]	< 5000 nM	< 300 nM
Cc1c(O)cc2c(c1C)OC1(CCC1)CC2 [7,8-dimethyl-3,4-dihydrospiro[chromene-2,1′-cyclobutan]-6-ol]	< 5000 nM	< 300 nM
CC(C)(C)c1cc2c(cc1O)CCC1(CCC1)O2 [7-tert-butyl-3,4-dihydrospiro[chromene-2,1′-cyclobutan]-6-ol]	< 5000 nM	< 300 nM
Cc1c(O)c(C(C)(C)C)cc2c1CCC1(CCC1)O2 [7-tert-butyl-5-methyl-3,4-dihydrospiro[chromene-2,1′-cyclobutan]-6-ol]	< 5000 nM	< 300 nM
CCc1cc2c(c(CC)c1O)CC(CSCC(=O)OC)C1(CCC1)O2 (centres unmarked) [methyl 2-((5,7-diethyl-6-hydroxyspiro[chroman-2,1′-cyclobutane]-3-yl)methylthio)acetate]	< 5000 nM	< 300 nM
